Like-named read-outs stand apart in the source and are kept apart here.

The text below walks through data of article PMC6272905, “In Vitro and In Vivo Characterization of Selected Fluorine-18 Labeled Radioligands for PET Imaging of the Dopamine D3 Receptor” (Molecules, 2016).

A short description of data set [1]: Binding to proteins in human plasma in vitro. The format is in vitro ADME. Particulars: human vs rat plasma. On the procedure:
(§1) The free fraction in vitro was determined by adding the respective radioligand (100 kBq) to plasma or CSF (200 µL) and mixed vigorously. Aliquots of 20–50 µL were transferred to size exclusion chromatography columns (MicroSpin G-50; GE Healthcare GmbH, Solingen, Germany, centrifuged for two min at 2000 rpm, and the radioactivity in the filtrate and in the resin were measured in the gamma-counter. Three independent experiments were performed in triplicates.

Data set [2] can be described thus: In vivo stability in blood of living rats (radiometabolites). Also noted: species or system rat. The protocol: For the determination of radioligand stability in vivo and detection of radiometabolites the respective radiotracer (15 MBq) was administered intravenous to male Sprague Dawley rats (200–250 g) under isoflurane anesthesia. Blood samples were drawn intravenous after 5, 15 and 30 min and centrifuged for 5 min at 2000 rpm in heparin-coated vials. An aliquot of 50 µL was taken from the supernatant and added to an equal volume of water (10% TFA). The protein precipitate was centrifuged off for 5 min at 25,000 rpm and an aliquot of the supernatant was fractioned with HPLC (Chromolith RP-18e, 100 mm × 4.6 mm, 4 mL/min, solvent A: water (0.1% TFA), solvent B: acetonitrile (0.1% TFA), gradient A/B: 90:10 to 0:100 in 15 min, λ = 214 nm). The fractions were then analyzed in the gamma-counter. To identify the fractions containing the intact radioligand, the retention time and fractioning of the respective tracer was previously assessed. Two independent experiments were performed.

Data set [3] addresses T1, D3 receptor (Rattus norvegicus, UniProt P19020).
T1 construct: In vitro autoradiography of coronal rat brain sections after incubation with the respective radioligand; from tissue; host or cells: coronal brain cryosections (20 µm) of male Sprague Dawley rats
The experiment in a line: In vitro autoradiography of coronal rat brain sections. The format is binding. To be noted: displacement with BP897. The protocol:
Male Sprague Dawley rats (200–250 g) were sacrificed by decapitation under deep isoflurane anesthesia and brains were removed and frozen in cooled hexane at −70 °C. Coronal brain sections (20 µm) were cut on a cryostat microtome (HM550, Microm-Thermo Fisher Scientific, Walldorf, Germany) and thaw-mounted on covered glass slides (Histobond®, Marienfeld, Lauda Königshofen, Germany). The thaw mounted sections were stored at −20 °C up to 14 days.
The cryostat sections were pre-incubated for 15 min in incubation buffer (50 mM Tris-HCl, 40 mM NaCl, pH 7.4) at room temperature. The sections were then placed in incubation buffer containing 5 MBq of the respective tracer. For displacement studies BP897 (50 nM or 1 µM) was added. The sections were incubated at room temperature for 45 min and afterwards washed in ice cold incubation buffer for 3 × 5 min. Subsequently, they were dipped in water and after drying placed on a phosphor imaging screen (Fujitsu, Berlin, Germany) over night. The screens were analyzed with a DUERR Medical HD-CR 35 Bio (Raytest, Straubenhardt, Germany) and evaluated using the software AIDA image analyzer (Raytest). For anatomical identification of brain regions, the sections were compared with figures in the rat brain atlas.

A short description of data set [4]: Determination of log D7.4 (experimental). Particulars: pH 7.4, n = 6. The format is physicochemical. On the procedure:
Human serum was purchased (Biochrom, Biochrom, UK). Human plasma and cerebrospinal fluid was a kind gift from the laboratory of Prof. P. Lewczuk of the clinical neurochemistry in Erlangen. Rat plasma was collected from male Sprague Dawley blood samples. The blood samples were collected intravenous and centrifuged at 2000 rpm for 15 min in heparin coated vials. The supernatant was stored in aliquots at −20 °C. Radioactivity was measured with radio HPLC or in a gamma-counter (Wallac Wizard, PerkinElmer, Waltham, MA, USA). The determination of the distribution coefficient at pH 7.4 (log D7.4) has been previously published.

A short description of data set [5]: Free fraction in rat plasma. The format is in vitro ADME. To be noted: for bound to proteins in plasma: of the injected dose; for free radioligand in rat plasma: Figure 3b. The protocol:
as §1
For the ex vivo determination of the radioligands binding to proteins the respective tracer (15 MBq) was administered intravenous to male Sprague Dawley rats (200–250 g) under isoflurane anesthesia. Blood samples were drawn intravenous after 5, 15 and 30 min and centrifuged for 5 min at 2000 rpm in heparin-coated vials. An aliquot of 50 µL was taken from the supernatant and added to an equal volume of water (10% TFA). The protein precipitate was centrifuged off for 5 min at 25,000 rpm and analyzed together with a further 50 µL aliquot of the supernatant in the gamma-counter. Two independent experiments were performed.

For data set [6], the system named is dopamine D3 receptor. The data set can be described thus: Dynamic small-animal PET recordings. To be noted: rat. The format is in vivo. On the procedure:
Small-animal PET imaging studies were conducted with male Sprague Dawleys rats (250–300 g) on a Inveon microPET scanner (Siemens Healthcare, Erlangen, Germany) under isoflurane (3%) anesthesia. After intravenous injection of [^18F]2b (10–15 MBq), dynamic emission recordings consisting of 13 frames of duration increasing from 30 s to 10 min were acquired to a total of 60 min. For displacement studies BP897 (1 mg/kg) was administered 30 min prior to radioligand injection. Dynamic emission images were corrected for attenuation and decay, and reconstructed by the iterative maximum a posteriori estimation, using software installed in the Inveon PET for dead time and random correction. The dynamic PET scan was then evaluated using the software Amide. The regions of interest were evaluated voxel based and the mean activity in %ID/g of each frame calculated.

Data set [7] is described as follows: In vitro stability in human serum. To be noted: 37 °C, after 120 min. The format is in vitro ADME. On the procedure: For the in vitro stability, an aliquot of the respective radioligand (1–5 MBq) was added to human serum (200 μL) and incubated at 37 °C. Aliquots (20 μL) were taken after 15, 30 and 120 min and analyzed by radio-HPLC (Method 1).
For data set [8], the target named is D3 receptor. Particulars: cited from earlier work.
On the set-up of data set [9]: method as in PMID 24339325, PMID 26707848. Particulars: experimental, pH 7.4, n = 6, previously reported; cited from earlier work.
On the set-up of data set [10]: method as in PMID 24339325, PMID 26707848. To be noted: over 120 min, previously reported; cited from earlier work.
For data set [11], the target named is T2, P-gp (Homo sapiens, UniProt P08183).
T2 construct: endogenous in cells; host or cells: Caco-2
T2 sequence (P08183 whole entry): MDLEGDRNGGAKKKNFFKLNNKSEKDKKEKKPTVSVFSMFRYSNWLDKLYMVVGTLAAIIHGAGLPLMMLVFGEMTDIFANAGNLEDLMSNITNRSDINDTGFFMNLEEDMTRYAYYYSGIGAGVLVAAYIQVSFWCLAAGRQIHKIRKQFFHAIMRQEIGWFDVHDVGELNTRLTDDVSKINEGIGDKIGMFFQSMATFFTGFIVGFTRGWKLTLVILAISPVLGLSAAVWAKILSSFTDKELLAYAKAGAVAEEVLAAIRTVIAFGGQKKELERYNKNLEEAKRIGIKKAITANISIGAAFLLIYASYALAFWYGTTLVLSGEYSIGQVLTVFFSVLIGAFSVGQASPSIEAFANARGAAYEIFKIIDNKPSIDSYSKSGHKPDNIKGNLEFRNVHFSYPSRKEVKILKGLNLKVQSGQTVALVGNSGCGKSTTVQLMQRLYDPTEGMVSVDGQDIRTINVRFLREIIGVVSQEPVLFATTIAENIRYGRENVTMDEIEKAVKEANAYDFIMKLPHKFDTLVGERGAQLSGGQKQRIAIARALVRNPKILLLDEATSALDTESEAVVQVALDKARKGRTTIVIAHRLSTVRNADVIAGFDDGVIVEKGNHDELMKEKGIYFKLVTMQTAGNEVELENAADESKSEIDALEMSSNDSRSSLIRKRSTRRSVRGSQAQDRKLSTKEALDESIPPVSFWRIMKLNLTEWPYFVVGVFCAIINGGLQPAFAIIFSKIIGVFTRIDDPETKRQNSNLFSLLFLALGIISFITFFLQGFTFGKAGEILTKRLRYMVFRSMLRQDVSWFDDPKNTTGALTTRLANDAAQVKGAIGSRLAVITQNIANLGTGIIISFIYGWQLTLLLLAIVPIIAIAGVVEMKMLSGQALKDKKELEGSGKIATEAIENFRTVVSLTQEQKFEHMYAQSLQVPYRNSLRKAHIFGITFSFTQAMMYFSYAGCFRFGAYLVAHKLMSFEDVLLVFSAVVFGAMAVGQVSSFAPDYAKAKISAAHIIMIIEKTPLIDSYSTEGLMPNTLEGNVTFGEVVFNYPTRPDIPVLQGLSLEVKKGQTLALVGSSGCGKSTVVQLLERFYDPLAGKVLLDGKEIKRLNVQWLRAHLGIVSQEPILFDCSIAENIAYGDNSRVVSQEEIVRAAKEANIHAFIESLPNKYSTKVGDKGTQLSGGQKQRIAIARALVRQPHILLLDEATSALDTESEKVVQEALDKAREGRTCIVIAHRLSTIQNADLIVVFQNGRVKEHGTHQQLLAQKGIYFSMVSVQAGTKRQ
The data set can be described thus: Bi-directional transport assay in Caco-2 cells. The format is cell-based. On the procedure: The procedure of initially adding equal concentrations to both compartments was adapted from the literature. Caco-2 cells were seeded near confluency in thin-cert inserts (translucent, Ø 0.4 µm, 24 well PET membrane, Greiner) and placed in multiwell plates (CELLSTAR 24 Multiwell plates, Greiner). The culture medium basolateral (multiwell) and apical (insert) was renewed every 2–3 days. Approximately 12 days after seeding the Caco-2 cells reached their highest trans-epithelial resistance, which was monitored every four days and on day of the experiment. An immunocytochemistry was also performed with an additional insert (translucent) to confirm stable formation of tight-junctions and cell monolayer. Culture medium was then removed and the cells were washed with PBS. Culture medium supplemented with cyclosporin (10 µM) was added to both compartments and the cells were incubated at 37 °C for 30 min. Afterwards 1 MBq [^18F]2b was added to each compartment. An aliquot was taken from each compartment after 0, 30, 60 and 90 min and analyzed in the gamma-counter. To identify cyclosporine-A induced accumulation the experiment was also performed using culture medium lacking cyclosporine-A. As positive control the experiment was performed with ^99mTc-MIBI (100 kBq/ compartment).
(Caco-2 monolayers are a common model of the intestinal barrier.)

The target in data set [12] is T2, P-gp. The data set can be described thus: P-gp inhibition assay (cellular uptake) in Caco-2 cells. The format is cell-based. Particulars: with vs without cyclosporin-A. The protocol:
(§2) EA.hy926 cells were seeded in culture medium at confluency the day prior to experiment or in case of the Caco-2 cells two days prior to experiment in 24-multiwell plates (Greiner Bio-One International GmbH, Kremsmünster, Austria). On the day of the experiment the culture medium was removed and the cells were washed once with PBS (500 µL). Culture medium supplemented with cyclosporine-A (5 µM for EA.hy926 and 10 µM for Caco-2) was added and the cells were incubated at 37 °C for 30 min. Afterwards 1 MBq of [^18F]2b was added to each well and incubated for further 30, 60 and 90 min. After incubation cells were washed with ice cold PBS (500 µL) and lysated with 0.1 M NaOH. The medium and lysates were analysed in the gamma-counter. To identify cyclosporine-A induced accumulation the experiment was also performed using culture medium lacking cyclosporine-A. As positive control the experiment was performed with ^99mTc-MIBI (100 kBq/well), a known P-gp substrate. To determine the lowermost concentration with which a maximum effect was obtained, cyclosporine-A was applied in a range of 0–50 µM and observed in a time frame of 30–120 min for both cell lines.

For data set [13], the target named is T2, P-gp. The experiment in a line: P-gp inhibition assay (cellular uptake) in EA.hy926 cells. The format is cell-based. To be noted: with vs without cyclosporin-A. The protocol:
as §2

Setting [14] is: Caco-2, absence of cyclosporin-A, up to 90 min.

T1 sequence (P19020 whole entry): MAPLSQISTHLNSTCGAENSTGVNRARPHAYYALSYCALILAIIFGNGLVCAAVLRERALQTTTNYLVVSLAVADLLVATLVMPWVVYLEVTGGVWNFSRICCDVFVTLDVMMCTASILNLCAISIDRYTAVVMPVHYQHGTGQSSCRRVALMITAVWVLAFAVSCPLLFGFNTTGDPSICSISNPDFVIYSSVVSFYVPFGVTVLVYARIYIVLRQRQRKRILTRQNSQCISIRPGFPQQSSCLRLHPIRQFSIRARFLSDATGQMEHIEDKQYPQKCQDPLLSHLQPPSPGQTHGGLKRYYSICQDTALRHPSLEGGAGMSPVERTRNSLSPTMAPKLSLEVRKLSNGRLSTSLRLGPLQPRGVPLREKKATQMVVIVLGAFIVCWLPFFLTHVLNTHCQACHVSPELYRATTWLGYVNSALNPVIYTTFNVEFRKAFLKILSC

The term logD denotes lipophilicity at a set pH, counting ionised and neutral species. A high value points to a more lipophilic compound. One may read the Ki as the equilibrium dissociation constant of an inhibitor or competing ligand from its target. For the compound `O=C(NCCC(O)CN1CCN(c2cccc(Cl)c2Cl)CC1)c1ccc(F)nc1` (centres unmarked) [[^18F]1, N-(4-(4-(2,3-Dichlorophenyl)piperazine-1-yl)-3-hydroxybutyl)-6-fluoronicotinamide], in data set [1], the “binding to human plasma higher than in rat plasma” value is reported as 20%–30%. Moreover, the “intact tracer in rat plasma” value in data set [2] (15 min post intravenous injection) turned out to be 57%. Further, in [2] (nearly constant over the total sampling time), the “intact tracer in rat plasma” value is reported as ~ 60%. The “binding pattern in rat brain sections” value in data set [3] is “pronounced non-specific binding in the corpus callosum and anterior commissure”. For the same compound, the logD in data set [4] was 2.5 ± 0.04. Moreover, in data set [5], the “bound to proteins in plasma” value is reported as 58% and the “free radioligand in rat plasma” value amounted to 42%. Further, in data set [6] (30 min p.i.), the “uptake in the pituitary gland” value is reported as 0.45 %ID/g. The “maximum uptake in the cerebral matter” value in data set [6] (after 50 seconds) was 0.25 %ID/g. In data set [6] (over the 60 min of recording), the “uptake in the cerebral matter after wash-out” value was found to be 0.17 %ID/g. Besides, the “decomposition in human serum” value in data set [7] is reported as no more than 2%. In [8], the Ki is 1.9 nM.
With `O=C(/N=N/c1ccc([18F])cc1)NCCC(O)CN1CCN(c2cccc(Cl)c2Cl)CC1` (centres unmarked) [[^18F]2a], in [9], the “Log D7.4” value is 2.56 ± 0.01. Besides, the “binding pattern in rat brain sections” value in data set [3] is on record as “homogenous non-specific binding throughout the whole rat brain sections”. In data set [5], the “bound to proteins in plasma” value was 82% and the “free radioligand in rat plasma” value was determined as 18%. The “brain uptake smaller than for [^18F]2b, factor” value in data set [6] turned out to be 1.5. Also, in data set [6] (25 min p.i.), the “uptake in the pituitary gland” value worked out at 0.6 %ID/g. In data set [10], the “decomposition in human serum” value is “no decomposition was observed”. In [8], the Ki was 3.6 nM.
As to `[99Tc].[C-]#[N+]CC(C)(C)OC.[C-]#[N+]CC(C)(C)OC.[C-]#[N+]CC(C)(C)OC.[C-]#[N+]CC(C)(C)OC.[C-]#[N+]CC(C)(C)OC.[C-]#[N+]CC(C)(C)OC` [^99mTc-MIBI, ^99mTc-methylisobutylnitrile, reference compound], the “concentration in the apical compartment, % of the initial concentration” value is 120% in data set [11] (setting [14]); 90% in [11] (Caco-2, presence of cyclosporin-A (^99mTc-MIBI after 60 and 90 min; [^18F]2b after 30 min)). Moreover, the “concentration in the basolateral compartment, % of the initial concentration” value in data set [11] (setting [14]) turned out to be 70%. The “concentration in the basolateral compartment” value in data set [11] (Caco-2, presence of cyclosporin-A) is “remained nearly constant”. Moreover, the “influence of cyclosporin-A on cellular uptake” value in [12] and in data set [13] was “accumulated” in each case.
